According to ChEMBL document CHEMBL4483862, “Open-source discovery of chemical leads for next-generation chemoprotective antimalarials” (2018):

Tested on: Plasmodium berghei
Test: Luciferase/luciferin-expressing antifolate-resistant parasites were used to infect a culture of HepG2 cells that were pre-incubated with compounds. Infected hepatocytes emit light due to the luciferase reaction. Assay results are presented as the percent inhibition of light emission compared to control. […]
Type: functional
Conditions: sporozoite; for IC90: read-out: LUCIFERASE INFECTION ASSAY - IC90

Compound `Cc1nc(C(=O)NNC(=O)c2c(-c3c(Cl)cccc3Cl)noc2C)cs1` has an IC50 (HEPG2TOX_HILL_SLOPE 1.49, HEPG2TOX_R_SQUARED 0.872, PBLUC_HILL_SLOPE 12.3, PBLUC_R_SQUARED 0.357, read-out: LUCIFERASE INFECTION ASSAY - IC50) of 2.61 µM and an IC90 of 3.12 µM.
For `Cc1nc2ccccn2c1-c1ccnn1S(=O)(=O)c1ccc(F)cc1`, the IC50 (HEPG2TOX_HILL_SLOPE 1.46, HEPG2TOX_R_SQUARED 0.888, PBLUC_HILL_SLOPE 12.2, PBLUC_R_SQUARED 0.241, read-out: LUCIFERASE INFECTION ASSAY - IC50) was 3.16 µM and the IC90 was 3.78 µM.
In the case of `Oc1ccc(CN2CCN(c3ccccn3)CC2)c2cccnc12`, the IC50 (HEPG2TOX_HILL_SLOPE 1.46, HEPG2TOX_R_SQUARED 0.941, PBLUC_HILL_SLOPE 3.25, PBLUC_R_SQUARED 0.21, read-out: LUCIFERASE INFECTION ASSAY - IC50) is reported as 7.97 µM and the IC90 is reported as over 10 µM.
For `COc1ccc(C(=O)/C=C/c2cc(Br)c(OCC(=O)N(C)C)c(OC)c2)c(OC)c1`, the IC50 (HEPG2TOX_HILL_SLOPE 1.45, HEPG2TOX_R_SQUARED 0.95, PBLUC_HILL_SLOPE 1.66, PBLUC_R_SQUARED 0.857, read-out: LUCIFERASE INFECTION ASSAY - IC50) was 1.19 µM and the IC90 was 4.46 µM.
Work on `Cc1ccc(-n2c(C)cc(C(=O)Cn3nc(C)c(C)c(C#N)c3=O)c2C)cc1C` yielded an IC50 (HEPG2TOX_HILL_SLOPE 1.5, HEPG2TOX_R_SQUARED 0.806, PBLUC_HILL_SLOPE 3.65, PBLUC_R_SQUARED 0.115, read-out: LUCIFERASE INFECTION ASSAY - IC50) of 9.8 µM and an IC90 of over 10 µM.
`CCn1c2ccccc2c2nnc(SCC(=O)c3cc(C)n(C)c3C)nc21` showed an IC50 (HEPG2TOX_HILL_SLOPE 1.47, HEPG2TOX_R_SQUARED 0.958, read-out: LUCIFERASE INFECTION ASSAY - IC50) of over 10 µM and an IC90 of over 10 µM.
`Brc1ccc(-[n+]2nc(-c3ccccc3)nn2-c2nn[nH]n2)cc1` showed an IC50 (HEPG2TOX_HILL_SLOPE 1.48, HEPG2TOX_R_SQUARED 0.648, PBLUC_HILL_SLOPE 2.42, 13.8, PBLUC_R_SQUARED 0.208, 0.342, read-out: LUCIFERASE INFECTION ASSAY - IC50) of 2.56 µM and an IC90 of 4.45 µM.
Work on `Cc1ccc(Cn2nc(C)c(/C=C/C(=O)N3CCN(S(=O)(=O)c4cccs4)CC3)c2C)cc1` yielded an IC50 (HEPG2TOX_HILL_SLOPE 1.48, HEPG2TOX_R_SQUARED 0.941, PBLUC_HILL_SLOPE 12.2, PBLUC_R_SQUARED 0.462, read-out: LUCIFERASE INFECTION ASSAY - IC50) of 9.53 µM and an IC90 of over 10 µM.
Compound `CCCn1c(C)cc(/C=C(\C#N)C(=O)Nc2ccc3c(c2)OCO3)c1C` has an IC50 (HEPG2TOX_HILL_SLOPE 1.46, HEPG2TOX_R_SQUARED 0.846, PBLUC_HILL_SLOPE 2.22, PBLUC_R_SQUARED 0.625, read-out: LUCIFERASE INFECTION ASSAY - IC50) of 0.857 µM and an IC90 of 2.3 µM.
In the case of `Cc1cc(C)c2cc(C(=O)Nc3ccc(N4CCN(C)CC4)nc3)[nH]c2c1`, the IC50 (HEPG2TOX_HILL_SLOPE 1.47, HEPG2TOX_R_SQUARED 0.9, PBLUC_HILL_SLOPE 16.4, PBLUC_R_SQUARED 0.482, read-out: LUCIFERASE INFECTION ASSAY - IC50) is reported as 3.19 µM and the IC90 is reported as 3.64 µM.
Compound `Cc1nnsc1C(=O)Nc1nc(C(F)(F)F)c(-c2ccccc2)s1` has an IC50 (HEPG2TOX_HILL_SLOPE 1.46, HEPG2TOX_R_SQUARED 0.922, PBLUC_HILL_SLOPE 11.5, PBLUC_R_SQUARED 0.414, read-out: LUCIFERASE INFECTION ASSAY - IC50) of 8.03 µM and an IC90 of over 8.91 µM.
`COc1cc(-c2ccc(N3CCN(c4ccncc4)CC3)nc2)cc(OC)c1OC` was tested, and the IC50 (HEPG2TOX_HILL_SLOPE 1.45, HEPG2TOX_R_SQUARED 0.424, PBLUC_HILL_SLOPE 3.58, PBLUC_R_SQUARED 0.452, read-out: LUCIFERASE INFECTION ASSAY - IC50) was 6.09 µM and the IC90 was over 8.12 µM.
In the case of `COc1cc(/C=C/C(=O)Oc2c(Cl)cc(Cl)c3ccc(C)nc23)cc(OC)c1OC`, the IC50 (HEPG2TOX_HILL_SLOPE 1.48, HEPG2TOX_R_SQUARED 0.88, PBLUC_HILL_SLOPE 12.1, PBLUC_R_SQUARED 0.667, read-out: LUCIFERASE INFECTION ASSAY - IC50) is reported as 2.95 µM and the IC90 is reported as 3.54 µM.
Work on `CC(C)NC(=O)c1c(NC(=O)c2cccc(C#N)c2)nc2ccccn12` yielded an IC50 (HEPG2TOX_HILL_SLOPE 1.47, HEPG2TOX_R_SQUARED 0.952, PBLUC_HILL_SLOPE 19.2, PBLUC_R_SQUARED 0.401, read-out: LUCIFERASE INFECTION ASSAY - IC50) of 6.85 µM and an IC90 of 7.68 µM.
`COc1ccc(Nc2ccn3ncc(-c4ccc(OC)c(OC)c4)c3n2)cn1` was tested, and the IC50 (HEPG2TOX_HILL_SLOPE 1.44, HEPG2TOX_R_SQUARED 0.951, PBLUC_HILL_SLOPE 2.71, PBLUC_R_SQUARED 0.798, read-out: LUCIFERASE INFECTION ASSAY - IC50) was 0.768 µM and the IC90 was 1.73 µM.
`Cc1ccc(NC(=O)N2CCCN(c3nc4ccc(Cl)cc4s3)CC2)cc1` showed an IC50 (HEPG2TOX_HILL_SLOPE 1.45, HEPG2TOX_R_SQUARED 0.845, PBLUC_HILL_SLOPE 2.38, PBLUC_R_SQUARED 0.538, read-out: LUCIFERASE INFECTION ASSAY - IC50) of 3.62 µM and an IC90 of over 8.23 µM.
Compound `COc1ccc(-c2cnn3ccc(NCc4cccnc4)nc23)cc1OC` has an IC50 (HEPG2TOX_HILL_SLOPE 1.45, HEPG2TOX_R_SQUARED 0.956, PBLUC_HILL_SLOPE 2.78, PBLUC_R_SQUARED 0.698, read-out: LUCIFERASE INFECTION ASSAY - IC50) of 2.49 µM and an IC90 of 5.49 µM.
`N#C/C(=N\Nc1cccc(Cl)c1)C(=O)c1cc(-c2ccccc2)c(C(F)(F)F)s1` gave an IC50 (HEPG2TOX_HILL_SLOPE 1.47, HEPG2TOX_R_SQUARED 0.986, PBLUC_HILL_SLOPE 2.41, PBLUC_R_SQUARED 0.872, read-out: LUCIFERASE INFECTION ASSAY - IC50) of 0.605 µM and an IC90 of 1.5 µM.
In the case of `COc1ccc(-c2csc3ncnc(NCCCCCc4n[nH]c(N)c4C#N)c23)cc1`, the IC50 (HEPG2TOX_HILL_SLOPE 1.47, HEPG2TOX_R_SQUARED 0.942, PBLUC_HILL_SLOPE 36.2, PBLUC_R_SQUARED 0.623, read-out: LUCIFERASE INFECTION ASSAY - IC50) is reported as 3.33 µM and the IC90 is reported as 3.53 µM.
`Cc1ccc(Cl)cc1N1CCN(C(=O)NCc2ccco2)CC1` gave an IC50 (HEPG2TOX_HILL_SLOPE 1.45, HEPG2TOX_R_SQUARED 0.763, PBLUC_HILL_SLOPE 1.12, PBLUC_R_SQUARED 0.27, read-out: LUCIFERASE INFECTION ASSAY - IC50) of 5.99 µM and an IC90 of over 10 µM.
`CCCn1c(SCC(=O)N(C)C(C)c2nc3ccccc3s2)nc2sc3c(c2c1=O)CCC3` (configuration not stated) showed an IC50 (HEPG2TOX_HILL_SLOPE 1.5, HEPG2TOX_R_SQUARED 0.705, PBLUC_HILL_SLOPE 172, PBLUC_R_SQUARED 0.534, read-out: LUCIFERASE INFECTION ASSAY - IC50) of 3.33 µM and an IC90 of 3.37 µM.
Compound `CCC(=O)c1cn(S(=O)(=O)c2ccc(C)cc2)c2ccccc12` has an IC50 (HEPG2TOX_HILL_SLOPE 1.47, HEPG2TOX_R_SQUARED 0.948, PBLUC_HILL_SLOPE 16.3, PBLUC_R_SQUARED 0.746, read-out: LUCIFERASE INFECTION ASSAY - IC50) of 2.9 µM and an IC90 of 3.32 µM.
Work on `Nc1c(C(=O)c2ccccc2)sc(Nc2ccccc2)c1C(=O)Nc1ccc(SC(F)F)cc1` yielded an IC50 (HEPG2TOX_HILL_SLOPE 1.49, HEPG2TOX_R_SQUARED 0.921, PBLUC_HILL_SLOPE 11.4, PBLUC_R_SQUARED 0.694, read-out: LUCIFERASE INFECTION ASSAY - IC50) of 1.05 µM and an IC90 of 1.28 µM.
For `COc1ccc(C=C(c2nc3ccccc3s2)c2nc3ccccc3s2)c(OC)c1OC`, the IC50 (HEPG2TOX_HILL_SLOPE 1.46, HEPG2TOX_R_SQUARED 0.78, PBLUC_HILL_SLOPE 2.12, PBLUC_R_SQUARED 0.479, read-out: LUCIFERASE INFECTION ASSAY - IC50) was 7.05 µM and the IC90 was over 10 µM.
For `Cc1ccc(-c2nc(C(=O)NC3CC3)cc3c2[nH]c2ccccc23)cc1`, the IC50 (HEPG2TOX_HILL_SLOPE 1.45, HEPG2TOX_R_SQUARED 0.961, PBLUC_HILL_SLOPE 3.11, PBLUC_R_SQUARED 0.33, read-out: LUCIFERASE INFECTION ASSAY - IC50) was 3.64 µM and the IC90 was 7.38 µM.
Work on `CC(C)(C)C1CCc2[nH]c(=O)sc2C1` (configuration not stated) yielded an IC50 (HEPG2TOX_HILL_SLOPE 1.45, HEPG2TOX_R_SQUARED 0.907, PBLUC_HILL_SLOPE 17.6, PBLUC_R_SQUARED 0.512, read-out: LUCIFERASE INFECTION ASSAY - IC50) of 1.16 µM and an IC90 of 1.31 µM.
Work on `Cc1nc(NCc2ccc(N3CCN(C)CC3)nc2)c2c(-c3ccccc3)csc2n1` yielded an IC50 (HEPG2TOX_HILL_SLOPE 1.47, HEPG2TOX_R_SQUARED 0.785, PBLUC_HILL_SLOPE 14.9, PBLUC_R_SQUARED 0.788, read-out: LUCIFERASE INFECTION ASSAY - IC50) of 3.22 µM and an IC90 of 3.73 µM.
`Cc1nnsc1C(=O)Nc1cc(C(F)(F)F)cc(C(F)(F)F)c1` gave an IC50 (HEPG2TOX_HILL_SLOPE 1.48, HEPG2TOX_R_SQUARED 0.897, PBLUC_HILL_SLOPE 8.57, PBLUC_R_SQUARED 0.681, read-out: LUCIFERASE INFECTION ASSAY - IC50) of 1.08 µM and an IC90 of 1.4 µM.
`CCc1ccc(NC(=O)COc2c(Cl)cc(Cl)c3ccc(C)nc23)cc1` gave an IC50 (HEPG2TOX_HILL_SLOPE 1.5, HEPG2TOX_R_SQUARED 0.996, PBLUC_HILL_SLOPE 3.18, PBLUC_R_SQUARED 0.331, read-out: LUCIFERASE INFECTION ASSAY - IC50) of 0.657 µM and an IC90 of 1.31 µM.
Compound `N#C/C(=N\Nc1ccc(OC(F)(F)F)cc1)C(=O)C1CC1` has an IC50 (HEPG2TOX_HILL_SLOPE 1.44, HEPG2TOX_R_SQUARED 0.96, PBLUC_HILL_SLOPE 2.87, PBLUC_R_SQUARED 0.372, read-out: LUCIFERASE INFECTION ASSAY - IC50) of 7.46 µM and an IC90 of over 11.1 µM.
In the case of `O=C1NC(=O)/C(=C\c2ccc(Cl)c(Cl)c2)N1`, the IC50 (HEPG2TOX_HILL_SLOPE 1.44, HEPG2TOX_R_SQUARED 0.948, PBLUC_HILL_SLOPE 2.09, PBLUC_R_SQUARED 0.686, read-out: LUCIFERASE INFECTION ASSAY - IC50) is reported as 1.87 µM and the IC90 is reported as 5.37 µM.
